≈ marks a conversion by molar mass, not a printed value. Values belong to the compound of their own block, whether it stands above or below them.
Experiments:
XIA [1] = assay: XIA inhibition (Ki); assay type: biochemical; conditions: XIA relative to TFVIIa
XIA [2] = biological target: XIA (Homo sapiens, UniProt P03951); assay: XIA inhibition (Ki); assay type: biochemical; conditions: XIA
Chymotrypsin = Chymotrypsin inhibition (Ki); assay type: biochemical
tPA = tPA (Homo sapiens, UniProt P00750); assay: tPA inhibition (Ki); assay type: biochemical
Chain of tPA (P00750 36-562, species assumed): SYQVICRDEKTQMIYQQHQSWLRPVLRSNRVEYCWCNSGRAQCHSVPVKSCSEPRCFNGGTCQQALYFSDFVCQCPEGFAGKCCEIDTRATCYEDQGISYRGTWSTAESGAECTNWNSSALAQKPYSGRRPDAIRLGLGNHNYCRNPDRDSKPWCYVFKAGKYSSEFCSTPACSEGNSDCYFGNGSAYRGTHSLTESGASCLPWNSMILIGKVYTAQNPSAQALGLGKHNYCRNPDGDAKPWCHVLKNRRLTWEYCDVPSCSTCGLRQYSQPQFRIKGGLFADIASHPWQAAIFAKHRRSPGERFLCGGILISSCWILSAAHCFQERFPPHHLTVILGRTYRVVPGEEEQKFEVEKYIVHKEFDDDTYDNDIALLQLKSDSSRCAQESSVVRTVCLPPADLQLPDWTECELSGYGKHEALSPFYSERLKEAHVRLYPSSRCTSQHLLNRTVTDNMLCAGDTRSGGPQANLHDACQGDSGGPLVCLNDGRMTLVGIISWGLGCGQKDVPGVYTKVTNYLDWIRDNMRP

Plasmin = Plasmin (Homo sapiens, UniProt P00747); assay: Plasmin inhibition (Ki); assay type: biochemical
Chain of Plasmin (P00747 581-810 limits assumed, species assumed): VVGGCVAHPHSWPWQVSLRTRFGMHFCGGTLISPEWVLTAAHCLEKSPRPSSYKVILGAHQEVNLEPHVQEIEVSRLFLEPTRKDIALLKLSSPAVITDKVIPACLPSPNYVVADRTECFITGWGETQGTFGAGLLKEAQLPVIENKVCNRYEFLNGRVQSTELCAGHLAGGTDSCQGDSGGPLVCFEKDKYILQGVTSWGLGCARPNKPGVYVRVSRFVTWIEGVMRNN
Chain of Plasmin (P00747 97-580 limits assumed, species assumed): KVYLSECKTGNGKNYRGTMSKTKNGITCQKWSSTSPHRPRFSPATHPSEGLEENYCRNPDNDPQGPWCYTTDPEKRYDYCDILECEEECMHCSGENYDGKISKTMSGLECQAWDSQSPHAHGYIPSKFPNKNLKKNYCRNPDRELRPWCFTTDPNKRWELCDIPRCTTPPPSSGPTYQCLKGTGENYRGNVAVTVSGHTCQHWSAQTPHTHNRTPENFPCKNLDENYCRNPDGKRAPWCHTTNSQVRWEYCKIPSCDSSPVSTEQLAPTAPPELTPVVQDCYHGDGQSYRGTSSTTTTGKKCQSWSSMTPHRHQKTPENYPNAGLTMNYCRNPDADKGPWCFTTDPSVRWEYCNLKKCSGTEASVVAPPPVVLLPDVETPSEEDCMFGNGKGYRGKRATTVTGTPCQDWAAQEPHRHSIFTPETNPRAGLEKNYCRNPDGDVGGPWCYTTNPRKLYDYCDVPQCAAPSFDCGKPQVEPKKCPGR

F. Xa = biological target: T1, F. Xa (Homo sapiens, UniProt P00742); assay: Factor Xa assay (Ki); assay type: biochemical
T1 construct: This complex converts factor X to Xa; purchased Hematologic Technologies
T1 sequence (P00742 41-179 limits assumed): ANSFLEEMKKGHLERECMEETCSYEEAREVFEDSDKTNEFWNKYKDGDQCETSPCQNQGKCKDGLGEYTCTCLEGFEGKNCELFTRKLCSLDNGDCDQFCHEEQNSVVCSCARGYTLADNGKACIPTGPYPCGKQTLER
T1 sequence (P00742 235-488 limits assumed): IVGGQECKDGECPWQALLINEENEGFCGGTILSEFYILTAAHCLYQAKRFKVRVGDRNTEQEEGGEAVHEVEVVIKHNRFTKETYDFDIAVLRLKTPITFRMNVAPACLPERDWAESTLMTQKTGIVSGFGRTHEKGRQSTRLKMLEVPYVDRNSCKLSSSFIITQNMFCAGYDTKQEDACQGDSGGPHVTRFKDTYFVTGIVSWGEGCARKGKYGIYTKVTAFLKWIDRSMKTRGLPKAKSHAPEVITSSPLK
Description: (§1) Factor Xa, Thrombin, and Plasma Kallikrein Assays
(§2) These procedures can be used to determine the constant of inhibition (Ki) for a sample compound of the invention.
(§3) • Assay Buffer: 100 mM Hepes pH 7.8, 140 mM NaCl, 0.1% PEG-8000, 0.02% Tween-80 • Coagulation human Factor Xa, Thrombin, or Plasma Kallikrein (Hematologic Technologies) • Factor: Dilute to 0.45 μg/mL (9.8 nM) in assay buffer. • Substrate: S-2222, S2366 or S2302—(See below—Chromogenix Inc,) Reconstitute at 5 mM in H2O. Dilute to 1.5 mM in assay buffer prior to use. • Samples: Dilute samples to 3% DMSO in assay buffer. Procedure: • 1. Add 50 μL sample to each well. • 2. Add 50 μL appropriately diluted coagulation factor to each well. • 3. Incubate for 5 minutes at room temperature with gentle agitation. • 4. Add 50 μL appropriately diluted substrate to each well. • 5. Agitate plate for 20–25 sec. • 6. Monitor absorbance at 405 nm every 10 sec for a total of 5 minutes at room temperature. • 7. Calculate Vmax over 10 points. Assay—Enzyme, Substrate and Final Concentrations

APC [3] = biological target: APC (Homo sapiens, UniProt P04070); assay: APC inhibition (Ki); assay type: biochemical; conditions: APC
Chain of APC (Homo sapiens, UniProt P04070) (P04070 212-461 limits assumed): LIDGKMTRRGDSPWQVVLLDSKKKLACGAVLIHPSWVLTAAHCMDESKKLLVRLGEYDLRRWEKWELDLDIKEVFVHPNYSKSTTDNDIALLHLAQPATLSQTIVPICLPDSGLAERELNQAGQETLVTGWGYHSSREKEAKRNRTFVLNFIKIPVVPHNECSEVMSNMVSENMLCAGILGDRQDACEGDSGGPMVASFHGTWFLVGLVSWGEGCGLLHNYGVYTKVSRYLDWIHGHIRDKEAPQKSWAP

APC [4] = assay: APC inhibition (Ki); assay type: biochemical; conditions: APC relative to TFVIIa
Acetylcholinesterase = Acetylcholinesterase (Homo sapiens, UniProt P22303); assay: Acetylcholinesterase inhibition (Ki); assay type: biochemical
Chain of Acetylcholinesterase (P22303 32-614, species assumed): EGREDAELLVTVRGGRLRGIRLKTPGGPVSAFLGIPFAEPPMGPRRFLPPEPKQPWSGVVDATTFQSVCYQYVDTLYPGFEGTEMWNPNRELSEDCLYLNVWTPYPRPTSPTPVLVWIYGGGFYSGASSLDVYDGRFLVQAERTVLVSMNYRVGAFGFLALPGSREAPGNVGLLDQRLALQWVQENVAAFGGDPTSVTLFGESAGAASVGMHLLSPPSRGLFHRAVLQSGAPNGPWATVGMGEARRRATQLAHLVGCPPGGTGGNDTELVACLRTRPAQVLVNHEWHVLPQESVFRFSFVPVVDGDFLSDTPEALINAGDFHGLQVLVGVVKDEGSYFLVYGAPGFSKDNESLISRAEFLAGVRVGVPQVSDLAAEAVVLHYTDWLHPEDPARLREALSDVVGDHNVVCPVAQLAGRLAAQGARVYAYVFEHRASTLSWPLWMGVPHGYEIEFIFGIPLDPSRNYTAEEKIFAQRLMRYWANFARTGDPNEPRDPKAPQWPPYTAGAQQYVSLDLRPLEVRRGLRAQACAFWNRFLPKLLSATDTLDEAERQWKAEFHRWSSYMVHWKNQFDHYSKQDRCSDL

XIIA = biological target: T2, XIIA (Homo sapiens, UniProt P00748); assay: XIIA inhibition (Ki); assay type: biochemical
T2 sequence (P00748 373-615 limits assumed): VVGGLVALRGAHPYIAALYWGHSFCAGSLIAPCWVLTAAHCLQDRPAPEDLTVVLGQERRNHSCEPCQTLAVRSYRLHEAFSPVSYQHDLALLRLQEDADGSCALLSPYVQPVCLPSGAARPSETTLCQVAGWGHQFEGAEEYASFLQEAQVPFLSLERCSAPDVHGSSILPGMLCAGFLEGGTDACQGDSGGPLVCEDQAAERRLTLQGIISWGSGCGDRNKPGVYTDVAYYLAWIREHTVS

Urokinase = Urokinase (Homo sapiens, UniProt P00749); assay: Urokinase inhibition (Ki); assay type: biochemical
Thrombin = biological target: T3, Thrombin (Homo sapiens, UniProt P00734); assay: Thrombin assay (Ki); assay type: biochemical
T3 construct: rapidly converts prothrombin to thrombin; purchased Hematologic Technologies
Description: as §1, §2, §3

TFVIIa = biological target: T4, TFVIIa (Homo sapiens, UniProt P08709); assay: Tissue Factor/Factor VIIa antagonist assay (Ki); assay type: biochemical
T4 construct: recombinant human factor VIIa; NB #25942–16
T4 sequence (P08709 61-212 limits assumed): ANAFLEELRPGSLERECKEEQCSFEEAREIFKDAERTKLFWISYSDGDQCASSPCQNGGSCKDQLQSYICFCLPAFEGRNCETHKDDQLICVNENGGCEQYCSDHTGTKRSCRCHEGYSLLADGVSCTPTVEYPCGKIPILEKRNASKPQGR
T4 sequence (P08709 213-466 limits assumed): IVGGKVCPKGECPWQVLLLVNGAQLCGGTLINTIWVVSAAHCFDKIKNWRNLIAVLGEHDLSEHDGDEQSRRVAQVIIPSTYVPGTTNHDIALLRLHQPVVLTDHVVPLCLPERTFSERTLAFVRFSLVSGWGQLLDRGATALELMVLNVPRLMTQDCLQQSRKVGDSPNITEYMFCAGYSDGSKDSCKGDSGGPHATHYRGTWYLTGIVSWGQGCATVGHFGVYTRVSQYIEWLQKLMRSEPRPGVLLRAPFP
T4 sequence (P13726 33-251 partner limits assumed): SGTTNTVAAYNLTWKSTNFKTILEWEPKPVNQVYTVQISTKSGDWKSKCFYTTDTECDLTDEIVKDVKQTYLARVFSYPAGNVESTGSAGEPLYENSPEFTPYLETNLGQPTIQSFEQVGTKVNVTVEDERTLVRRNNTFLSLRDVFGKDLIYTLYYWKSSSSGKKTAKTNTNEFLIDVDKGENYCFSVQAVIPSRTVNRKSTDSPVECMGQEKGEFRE
Description: Tissue Factor/Factor VIIa Antagonist Assay
This procedure can be used to determine the constant of inhibition (Ki) for a sample compound of the invention.
• Assay Buffer: 100 mM Hepes pH 7.8, 140 mM NaCl, 0.1% PEG-8000, 0.02% Tween-80, 5 mM CaCl2 Coagulation • Factor: recombinant human factor VIIa (NB #25942–16) • Cofactor: soluble Tissue Factor (1-219) • Substrate: Chromozym-tPA (Boehringer Mannheim, Cat. #1093 037) Reconstitute at 20 mM in H2O. Dilute to 4 mM in assay buffer with CaCl2 prior to use. • Samples: Dilute samples to 3% DMSO in assay buffer (lacking CaCl2). Procedure: • 1. Prepare a solution of 2 μg/mL (90 nM) tissue factor and 1.5 μg/mL (30 nM) factor VIIa in assay buffer with CaCl2. • 2. Incubate for 15 minutes at room temperature. • 3. Add 50 μL sample to each well. • 4. Add 50 μL tissue factor/factor VIIa solution to each well. • 5. Incubate for 15 minutes at room temperature with gentle agitation. • 6. Add 50 μL substrate to each well. • 7. Agitate plate for 20–25 sec. • 8. Monitor absorbance at 405 nm every 10 sec for a total of 5 minutes at room temperature. • 9. Calculate Vmax over 10 points.

Plasma Kallikrein = biological target: T5, Plasma Kallikrein (Homo sapiens, UniProt P03952); assay: Plasma Kallikrein assay (Ki); assay type: biochemical
T5 construct: human Factor Xa, Thrombin, or Plasma Kallikrein (Hematologic Technologies); purchased Hematologic Technologies
T5 sequence (P03952 20-390 limits assumed): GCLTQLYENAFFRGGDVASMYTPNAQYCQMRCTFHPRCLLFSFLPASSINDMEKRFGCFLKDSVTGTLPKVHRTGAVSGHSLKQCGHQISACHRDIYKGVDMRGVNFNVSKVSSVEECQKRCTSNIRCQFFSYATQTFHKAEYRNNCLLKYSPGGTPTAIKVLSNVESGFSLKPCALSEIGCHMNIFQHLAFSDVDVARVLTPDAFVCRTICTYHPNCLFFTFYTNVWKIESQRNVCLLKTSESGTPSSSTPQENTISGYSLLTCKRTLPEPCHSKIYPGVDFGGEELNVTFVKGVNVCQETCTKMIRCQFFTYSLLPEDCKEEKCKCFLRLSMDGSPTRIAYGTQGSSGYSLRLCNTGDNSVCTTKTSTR
T5 sequence (P03952 391-638 limits assumed): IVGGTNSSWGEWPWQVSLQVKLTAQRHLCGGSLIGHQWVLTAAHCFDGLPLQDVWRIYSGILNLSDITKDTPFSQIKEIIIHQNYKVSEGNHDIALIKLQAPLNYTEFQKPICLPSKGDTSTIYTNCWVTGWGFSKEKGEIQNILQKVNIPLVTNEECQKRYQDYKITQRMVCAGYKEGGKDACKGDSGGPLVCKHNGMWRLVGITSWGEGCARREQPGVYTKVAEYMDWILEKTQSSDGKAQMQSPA
Description: as §1, §2, §3

HGFA = biological target: T6, HGFA (Homo sapiens, UniProt Q04756); assay: HGFA inhibition (Ki); assay type: biochemical
T6 sequence (Q04756 373-655): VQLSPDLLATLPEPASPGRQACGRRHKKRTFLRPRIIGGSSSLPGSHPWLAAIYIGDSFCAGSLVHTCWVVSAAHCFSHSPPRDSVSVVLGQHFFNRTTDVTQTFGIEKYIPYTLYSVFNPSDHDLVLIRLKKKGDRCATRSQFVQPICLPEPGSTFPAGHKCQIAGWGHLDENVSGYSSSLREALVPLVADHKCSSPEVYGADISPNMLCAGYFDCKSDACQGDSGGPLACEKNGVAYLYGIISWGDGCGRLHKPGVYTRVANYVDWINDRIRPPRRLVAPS

Complement CS1 = biological target: T7, Complement CS1 (Homo sapiens, UniProt P09871); assay: Complement CS1 inhibition (Ki); assay type: biochemical
T7 sequence (P09871 16-688): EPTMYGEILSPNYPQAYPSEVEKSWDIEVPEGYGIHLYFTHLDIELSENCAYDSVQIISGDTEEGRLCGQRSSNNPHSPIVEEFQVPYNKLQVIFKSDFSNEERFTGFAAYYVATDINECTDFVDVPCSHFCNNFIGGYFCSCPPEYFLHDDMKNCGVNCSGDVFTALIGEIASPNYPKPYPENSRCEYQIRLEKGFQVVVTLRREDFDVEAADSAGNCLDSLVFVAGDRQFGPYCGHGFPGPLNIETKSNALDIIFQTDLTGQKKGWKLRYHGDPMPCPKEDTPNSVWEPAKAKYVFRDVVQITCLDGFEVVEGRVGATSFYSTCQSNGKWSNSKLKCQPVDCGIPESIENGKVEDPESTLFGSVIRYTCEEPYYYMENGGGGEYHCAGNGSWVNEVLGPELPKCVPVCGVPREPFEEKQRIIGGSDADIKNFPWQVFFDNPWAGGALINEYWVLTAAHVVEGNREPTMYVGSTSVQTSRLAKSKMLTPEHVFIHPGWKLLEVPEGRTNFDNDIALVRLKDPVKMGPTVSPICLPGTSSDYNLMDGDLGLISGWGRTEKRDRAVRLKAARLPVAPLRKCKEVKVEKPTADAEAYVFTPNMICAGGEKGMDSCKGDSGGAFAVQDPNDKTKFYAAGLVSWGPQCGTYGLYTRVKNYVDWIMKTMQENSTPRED

Trypsin = Trypsin inhibition (Ki); assay type: biochemical
[5] = Plasma concentrations following IV bolus administration in rhesus monkey; assay type: in vivo; conditions: IV bolus 1 mg/kg
Description: Dosing of Benzofuran Compounds in Rhesus Monkeys
IV Bolus: Inhibitors were formulated in a 1 mg/ml solution of 20–30% PEG 400/sterile water. The drug was administered as an IV bolus over 1 minute at 1 mg/kg. 1.0 ml blood samples were collected at each time point on 20 μl 8.5% K2EDTA. Blood samples for the IV dosed animals were be collected from a short, large bore catheter (needle <25G) placed in the saphenous or cephalic vein for all time points up to 3 hours after dosing. The catheters were then removed, the animals returned to their cages and latter samples collected by venipuncture. Venipuncture samples can be obtained from any superficial vein that can easily be compressed (e.g. cephalic, or saphenous but not from the femoral plexus). Sample time points were taken generally at the following times: pre-dose, 2, 5, 10, 20, 30, 40, 60, 90, 120, 150, 180 minutes and at 4, 6, 12, 24, and 48 hours.

Solubility in water = assay type: physicochemical; conditions: aqueous buffer, thermodynamic from solid, amorphous solid

Chain of XIA (Homo sapiens, UniProt P03951) (P03951 388-625 limits assumed): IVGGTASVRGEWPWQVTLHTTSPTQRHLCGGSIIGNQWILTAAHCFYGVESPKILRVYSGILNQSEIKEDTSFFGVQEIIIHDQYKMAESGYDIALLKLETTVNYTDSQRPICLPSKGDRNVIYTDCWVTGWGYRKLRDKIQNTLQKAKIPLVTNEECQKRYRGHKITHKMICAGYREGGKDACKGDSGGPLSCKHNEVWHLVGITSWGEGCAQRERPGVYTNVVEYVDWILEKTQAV

SMILES: CCc1cc(C(Nc2ccc(C(=N)N)cc2)C(=O)NS(N)(=O)=O)cc2c(C)coc12 (stereo not shown) [Compound 8]
Selectivity (XIA [1]): >2000 X
Ki (XIA [2]): > 8 µM
Ki (Chymotrypsin; Chymotrypsin): > 6.9 µM
Selectivity (Chymotrypsin; Chymotrypsin relative to TFVIIa): >1725 X
Ki (tPA; tPA): > 7.8 µM
Selectivity (tPA; tPA relative to TFVIIa): >1950 X
Ki (Plasmin; Plasmin): 0.88 µM
Selectivity (Plasmin; Plasmin relative to TFVIIa): 220 X
Ki (F. Xa; F. Xa): > 7 µM
Selectivity (F. Xa; F. Xa relative to TFVIIa): >1750 X
Ki (APC [3]): 1.44 µM
Selectivity (APC [4]): 360 X
Ki (Acetylcholinesterase): > 6.8 µM
Selectivity (Acetylcholinesterase; Acetylcholinesterase relative to TFVIIa): 1700 X
Ki (XIIA; XIIA): > 8.7 µM
Selectivity (XIIA; XIIA relative to TFVIIa): >2175 X
Ki (Urokinase; Urokinase): > 6.8 µM
Selectivity (Urokinase; Urokinase relative to TFVIIa): >1700 X
Ki (Thrombin; Thrombin): 0.83 µM
Selectivity (Thrombin; Thrombin relative to TFVIIa): 207 X
Ki (TFVIIa; TFVIIa): 0.004 µM
Selectivity (TFVIIa; TFVIIa (reference)): 1 X
Ki (Plasma Kallikrein; Plasma Kallikrein): 0.082 µM
Selectivity (Plasma Kallikrein; Plasma Kallikrein relative to TFVIIa): 20 X
Ki (HGFA; HGFA): 6.4 µM
Selectivity (HGFA; HGFA relative to TFVIIa): 1600 X
Ki (Complement CS1; Complement CS1): > 6.5 µM
Selectivity (Complement CS1; Complement CS1 relative to TFVIIa): >1625 X
Ki (Trypsin; Trypsin): 2.1 µM
Selectivity (Trypsin; Trypsin relative to TFVIIa): 525 X

SMILES: CCOc1cc(OCC)cc(C(Nc2ccc(C(=N)N)cc2)C(=O)NS(=O)(=O)CC)c1 (stereo not shown)
clearance [5]: 8.6 mL/min/kg body weight
half-life ([5]; plasma): 1.25 h

solubility (Solubility in water; pH 2): 115 µM (≈ 65 µg/mL)
solubility (Solubility in water; pH 6.5): 98 µM (≈ 55.4 µg/mL)
SMILES: CCc1cc(C(Nc2ccc(/C(N)=N\OCc3ccc(OC)cc3)cc2)C(=O)NS(N)(=O)=O)cc2c(C)coc12 (stereo not shown) [Compound 26]

Reference: patent US7273886B2 (Genentech, Inc., priority 2003, dated 2007)
